Like-named read-outs stand apart in the source and are kept apart here.
Assays:
[1] = test system: alpha-SG-null C57BL/6 mouse; assay: Histology: number of inflammatory infiltrates in muscle sections; type: in vivo; conditions: alpha-SG-null mice, drugs daily in the diet, 30 days of treatment, n = 4
Experimental: FIG. 3: alpha-SG-null C57BL/6 mice were treated for 30 days with the indicated drugs, or combinations of drugs incorporated into the diet as described in the Methods. Tibialis anterior muscles were dissected and frozen in liquid nitrogen-cooled isopentane. The number of inflammatory infiltrates was measured on Azan-Mallory-stained serial muscle sections.
(§1) The alpha-SG-null C57BL/6 mouse, one of the most severe models of muscular dystrophy was used. In some experiments wild type (wt) C57BL/6 mouse were used as internal further control.
(§2) In the in vivo experiments the drugs were administered daily in the diet to three months old animals for 30 days. The dose of aspirin was 80 mg/kg, the dose of ISMN was 35 mg/kg and that of ISDN was 10 mg/kg, while the dose of ibuprofen was 15 mg/kg. Prednisolone was used as reference drug at the dose of 2 mg/kg. When combinations of drugs were used, the drugs were both incorporated in the same diet. Control animals received the same diet without any drug incorporation.
(§3) Diaphragm and tibialis anterior of untreated and drug-treated mice were isolated and included in Killik® frozen section medium, quickly frozen and cut into 8-μm thick sections with the muscle fibres oriented transversely using a cryostat. Sections were stained with either Hematoxylin&Eosin or Azan Mallory, to evaluate the number of inflammatory infiltrates and necrotic fibres ([…] sections per tissue), respectively.

[2] = test system: alpha-SG-null C57BL/6 mouse; assay: Histology: number of necrotic fibres in muscle sections; type: in vivo; conditions: alpha-SG-null mice, drugs daily in the diet, 30 days of treatment, n = 4
Experimental: FIG. 4: alpha-SG-null C57BL/6 mice were treated for 30 days with the indicated drugs, or combinations of drugs incorporated into the diet as described in the Methods. Diaphragm muscles were dissected, frozen in liquid nitrogen-cooled isopentane and stained with hematoxilin & eosin according to standard procedures.
as §1, §2, §3

[3] = test system: alpha-SG-null C57BL/6 mouse; type: in vivo
Experimental: FIG. 1: alpha-sarcoglycan (SG)-null C57BL/6 mice were treated for 30 days with the indicated drugs, or combinations of drugs incorporated into the diet as described in the Methods. Serum creatin kinase (CK) concentrations were measured from mouse blood samples obtained by tail vein withdrawal using the indirect colorimetric assay (Roche Diagnostics), following standard procedures.
as §1, §2
Quantitative determination of creatine kinase activity in serum of control and drug treated-animals was measured using creatine kinase reagent (Randox, CK110), according to the manufacturer's instructions. Blood was collected from tail vein and serum obtained after centrifugation at 13000 rpm for 10 minutes was stored at −80° C. before measurements.

[4] = test system: alpha-SG-null C57BL/6 mouse; assay: Free wheel running (voluntary running wheel activity); type: in vivo; conditions: alpha-SG-null mice, drugs daily in the diet, 30 days of treatment, n = 4
Experimental: FIG. 2: alpha-SG-null C57BL/6 mice were treated for 30 days with the indicated drugs, or combinations of drugs incorporated into the diet as described in the Methods. Locomotor performance was measured through the Running Wheel Activity, to this end mice were housed individually in cages equipped with a Trixie running wheel. Each wheel revolution was registered through a magnetic switch, which was connected to a counter. The number of revolutions was recorded daily for 6 days. […] The results of 9 experiments ±S.E.M of Running Wheel Activity measured in wild type (wt) C57BL/6 mice are also reported.
as §1, §2
Voluntary wheel running was used as the exercise paradigm to avoid any physiological changes that may occur due to the stress of forced treadmill running. Mice were housed individually in cages equipped with a Trixie running wheel. Each wheel revolution was registered through a magnetic switch, which was connected to a counter. The number of revolutions was recorded daily for 6 days.

[5] = test system: Satellite cells from alpha-SG-null C57BL/6 mice; assay: Fusion index of differentiating satellite cells; type: cell-based, mouse; conditions: for Fusion index: n = 4; for Fusion index compared to control cells, in words: satellite cells, 48 and 72 h
Experimental: FIG. 6: Satellite cells from alpha-SG-null C57BL/6 mice were isolated from 3-5 days old mice and induced to differentiate in the presence of the indicated drugs as described in the methods. Fusion index was determined at 48 and 72 h as the number of nuclei in sarcomeric myosin-expressing cells with more than 2 nuclei vs the total number of nuclei.
In the in vitro experiments, the drugs were applied to satellite cells at the concentration of 100 μM for ISMN, 50 μM for ISDN, 10 μM for ibuprofen, 50 μM for aspirin and 30 μM for prednisolone. When combinations of drugs were used, the drugs were administered at the same time.
Satellite cells were isolated from 3-5 days old mice as described previously with some modifications. In particular, after 3 days from isolation, proliferating myoblasts were harvested, counted, and plated on tissue culture plastic dishes coated with 1 mg/ml type I collagen (SIGMA, C9791). […] Preparations showing less than 90% myogenic cells were discarded. […] Growth medium contained IMDM medium supplemented with 20% Fetal Bovine Serum, 3% Chick Embryo Extract, 100 U/ml Penicillin, 100 μg/ml Streptomycin, 50 μg/ml Gentamycin. Differentiation medium contained IMDM medium supplemented with 2% Horse Serum, 100 U/ml Penicillin, 100 μg/ml Streptomycin. Fusion index was determined as the number of nuclei in sarcomeric myosin-expressing cells with more than 2 nuclei vs the total number of nuclei.
Satellite cells isolated from newborn alpha-SG-null C57BL/6 mice and plated at low density (6×10^3 cells/cm^2) were maintained for 48 h in growth medium, and then switched to the differentiating medium in the presence or absence of ISMN, ISDN, aspirin, ibuprofen, ISMN plus aspirin or ISDN plus ibuprofen.

[6] = test system: alpha-SG-null C57BL/6 mouse; assay: In vivo experiments: histological, functional and biochemical alterations overall; conditions: alpha-SG-null mice, 30 days in the diet, vs control
Experimental: as §1, §2
The effects of the different drugs and their combination on the number of inflammatory infiltrates, the number of necrotic fibers per section, creatine kinase activity and free wheel distance ran are shown in Table I.

[7] = serum, alpha-SG-null mice, drugs daily in the diet, 30 days of treatment, n = 4
[8] = 48 hours of treatment in differentiating medium
[9] = 72 hours of treatment in differentiating medium

Compound | N° of inflammatory infiltrates/sections [1] | N° of necrotic fibres/section [2] | CK level [3, 7] [U/l] | Free wheel test [4] [km/24 h] | Fusion index [5, 8] [%] | Fusion index [5, 9] [%] | Effect on the parameters measured (histological, functional and biochemical alterations), in words [6] | Fusion index compared to control cells, in words [5] | CK level ([3]; mouse, in vivo) [U/l]
CC(=O)Oc1ccccc1C(=O)O [Aspirin] | 122.2 ± 17.1° | 249.0 ± 32.1 | 841 ± 33 | 0.15 ± 0.02 | 20 ± 1.9 | 43 ± 1.7 | did not have significant effects | – | –
O=[N+]([O-])O[C@H]1CO[C@H]2[C@@H]1OC[C@H]2O[N+](=O)[O-] [ISDN, isosorbide dinitrate] | – | – | – | – | – | – | did not have significant effects | effective on their own | –
O=[N+]([O-])O[C@@H]1CO[C@H]2[C@@H]1OC[C@@H]2O [ISMN, isosorbide-mononitrate] | 190.2 ± 33.2 | 238.0 ± 27.2 | – | 0.18 ± 0.03 | 41 ± 2.2 | 76 ± 3.3 | did not have significant effects | effective on their own | 787 ± 33
CC(C)Cc1ccc(C(C)C(=O)O)cc1 (stereo not drawn) [Ibuprofen] | 116.1 ± 11.1° | 269.0 ± 34.3 | 851 ± 41 | 0.12 ± 0.01 | 21 ± 1.2 | 42 ± 2.3 | did not have significant effects | – | –
C[C@]12C=CC(=O)C=C1CC[C@@H]1[C@@H]2[C@@H](O)C[C@@]2(C)[C@H]1CC[C@]2(O)C(=O)CO [Prednisolone] | 103.4 ± 12.0 | 217.3 ± 37.3 | 757.6 ± 37.5 | 0.38 ± 0.1 | 18 ± 0.9 | 41 ± 2.0 | – | – | –
